Measurements as given in PMC4964461, “Synthesis and Evaluation of Tricarbonyl ^99mTc-Labeled 2-(4-Chloro)phenyl-imidazo[1,2-a]pyridine Analogs as Novel SPECT Imaging Radiotracer for TSPO-Rich Cancer” (International Journal of Molecular Sciences, 2016).

Target: T1, 18-kDa translocator protein (TSPO) (Rattus norvegicus, UniProt P16257)
T1 construct: native TSPO in rat C6 glioma cell membranes
Assay: [3H]-PK […] radioligand displacement on C6 glioma membrane extracts
Type: binding
Conditions: read-out: Ki (nM) for TSPO

Row | Structure (SMILES) | Ki [nM]
1 | CCCN(CCC)C(=O)Cc1c(-c2ccc(Cl)cc2)nc2c(NC(=O)C[N+]34Cc5cccc[n+]5[Re-5]3([C]#[O+])([C]#[O+])([C]#[O+])[n+]3ccccc3C4)cccn12 (centres unmarked) [compound 2, Re-CB256] | 159 ± 8.7
2 | CCCN(CCC)C(=O)Cc1c(-c2ccc(Cl)cc2)nc2c(NC(=O)CN(Cc3ccccn3)Cc3ccccn3)cccn12 [compound 3] | 148 ± 11.3
